As usually defined, the IC50 is the concentration that gives 50% inhibition.

In one assay the target is T1, myeloperoxidase (MPO) (Homo sapiens, UniProt P05164).
T1 sequence (P05164 49-745): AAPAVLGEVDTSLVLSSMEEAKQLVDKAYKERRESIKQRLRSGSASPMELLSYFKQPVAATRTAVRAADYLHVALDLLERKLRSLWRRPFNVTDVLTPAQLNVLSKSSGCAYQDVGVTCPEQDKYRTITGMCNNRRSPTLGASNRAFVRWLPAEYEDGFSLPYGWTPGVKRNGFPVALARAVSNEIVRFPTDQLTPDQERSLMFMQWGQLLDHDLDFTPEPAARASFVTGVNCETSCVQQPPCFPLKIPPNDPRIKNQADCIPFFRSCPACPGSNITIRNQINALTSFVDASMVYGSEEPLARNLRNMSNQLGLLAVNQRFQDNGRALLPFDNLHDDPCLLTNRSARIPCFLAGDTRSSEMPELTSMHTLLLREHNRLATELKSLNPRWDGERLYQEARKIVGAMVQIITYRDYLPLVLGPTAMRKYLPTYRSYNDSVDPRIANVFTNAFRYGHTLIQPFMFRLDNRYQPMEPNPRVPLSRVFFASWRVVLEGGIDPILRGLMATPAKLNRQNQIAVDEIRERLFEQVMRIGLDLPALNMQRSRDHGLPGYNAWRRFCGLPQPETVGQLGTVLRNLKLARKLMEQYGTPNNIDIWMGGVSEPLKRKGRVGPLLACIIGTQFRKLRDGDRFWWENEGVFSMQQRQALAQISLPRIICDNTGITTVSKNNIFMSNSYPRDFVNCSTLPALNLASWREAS
Nature of the assay: MPO peroxidation assay (Amplex Red assay). It counts as biochemical.
Conditions: not given
The procedure:
MPO Peroxidation Assay (Amplex Red Assay)
MPO peroxidation activity was measured in 100 mM KPi (pH 7.4) by utilizing the non-fluorescent reagent Amplex Red (Invitrogen catalog # A12222) which can be oxidized to the highly fluorescent resorufin. Amplex Red is oxidized by the peroxidase action of MPO to resorufin. Reactions were carried out in 50 μL total volume by adding a 25 μL mixture of 200 pM myeloperoxidase and 40 nM H2O2(Sigma #349887) to 100 nL inhibitor in 100% DMSO in a 384 well Perkin Elmer Optiplate. Enzyme and compound were preincubated for ten minutes at room temperature.
After the ten minute preincubation, 25 μL of an Amplex Red mixture containing 200 μM Amplex Red and 10 mM H2O2 was added to the plate. Kinetic determinations were carried out immediately on a Perkin Elmer Envision (15 minute kinetic read, Ex: 535 nm, Em: 590 nm).
IC50 values were calculated by determining the slope of the linear portion of the kinetic trace ([…]), and using that calculated slope to determine % inhibition occurring at each concentration of inhibitor using the following equation:
[formula] where A=minimal Y value (activity level of inhibited sample), B=maximal Y value (activity level of uninhibited sample), C=Log IC50, D=Hill Slope, x=concentration of inhibitor. MPO Chlorination Assay (APF Assay)
In turn, `Cn1ccc(-c2cccc(COc3cc(N)nc4[nH]nnc34)c2)n1` [Example 5, 7-(3-(1-Methyl-1H-pyrazol-3-yl)benzyloxy)-3H-[1,2,3]triazolo[4,5-b]pyridin-5-amine] registered an IC50 of 1 to 100 nM.
The same measure, in the same setting: for `Nc1cc(OCc2cccc(Cl)c2)c2nn[nH]c2n1` [Example 10, 7-(3-Chlorobenzyloxy)-3H-[1,2,3]triazolo[4,5-b]pyridin-5-amine] the value was 1 to 100 nM; for `Nc1cc(OCc2ccc(Cl)cc2)c2nn[nH]c2n1` [Example 11, 7-(4-Chlorobenzyloxy)-3H-[1,2,3]triazolo[4,5-b]pyridin-5-amine], 1 to 100 nM.
The same measure, in the same setting: for `Nc1cc(OCc2ccccc2Cl)c2nn[nH]c2n1` [Example 12, 7-(2-Chlorobenzyloxy)-3H-[1,2,3]triazolo[4,5-b]pyridin-5-amine] the value was 1 to 100 nM.

Staying with this assay, now noted: MPO peroxidation, potency range class; read-out: Amplex Red IC50.
Turning to `CCC(F)(F)C(Oc1cc(N)nc2[nH]nnc12)c1ccccc1` (racemic) [Example 135, 7-(2,2-Difluoro-1-phenylbutoxy)-3H-[1,2,3]triazolo[4,5-b]pyridin-5-amine], the IC50 was 101 to 999 nM.
Still for that read-out and setting: the value for `CCC(F)(F)C(Oc1cc(N)nc2[nH]nnc12)c1ccccc1OC` (racemic) [Example 136, 7-(2,2-Difluoro-1-(2-methoxyphenyl)butoxy)-3H-[1,2,3]triazolo[4,5-b]pyridin-5-amine] was 101 to 999 nM; that for `Nc1cc(OC(c2ccccc2)C(F)F)c2nn[nH]c2n1` (racemic) [Example 138, 7-(2,2-Difluoro-1-phenylethoxy)-3H-[1,2,3]triazolo[4,5-b]pyridin-5-amine] was 101 to 999 nM; that for `CCC(F)(F)C(Oc1cc(N)nc2[nH]nnc12)c1ccccc1` (single isomer, unassigned) [Example 137, 7-(2,2-Difluoro-1-phenylbutoxy)-3H-[1,2,3]triazolo[4,5-b]pyridin-5-amine] was 1 to 100 nM.
Same read-out and setting: the value for `Nc1cc(OCc2ccc(OC(F)(F)F)cc2)c2nn[nH]c2n1` [Example 1, 7-(4-(Trifluoromethoxy)benzyloxy)-3H-[1,2,3]triazolo[4,5-b]pyridin-5-amine] was 1 to 100 nM.
Same read-out and setting: the value for `Nc1cc(OCc2cccc(-n3cncn3)c2)c2nn[nH]c2n1` [Example 3, 7-(3-(1H-1,2,4-Triazol-1-yl)benzyloxy)-3H-[1,2,3]triazolo[4,5-b]pyridin-5-amine] was 1 to 100 nM; that for `Nc1cc(OCc2cccc(S(=O)(=O)N3CCOCC3)c2)c2nn[nH]c2n1` [Example 4, 7-(3-(Morpholinosulfonyl)benzyloxy)-3H-[1,2,3]triazolo[4,5-b]pyridin-5-amine] was 101 to 999 nM; that for `Cc1nccn1-c1cccc(COc2cc(N)nc3[nH]nnc23)c1` [Example 7, 7-(3-(2-Methyl-1H-imidazol-1-yl)benzyloxy)-3H-[1,2,3]triazolo[4,5-b]pyridin-5-amine] was 101 to 999 nM.
In the case of `Nc1cc(OCc2cccc(OC(F)(F)F)c2)c2nn[nH]c2n1` [Example 13, 7-(3-(Trifluoromethoxy)benzyloxy)-3H-[1,2,3]triazolo[4,5-b]pyridin-5-amine], the IC50 fell in the range of 1 to 100 nM.
On the same count and under the same terms, for `Nc1cc(OCc2cccc(Oc3ccccc3)c2)c2nn[nH]c2n1` [Example 16, 7-(3-Phenoxybenzyloxy)-3H-[1,2,3]triazolo[4,5-b]pyridin-5-amine] the value was 101 to 999 nM; for `Nc1cc(OCc2ccc(OC(F)F)cc2)c2nn[nH]c2n1` [Example 17, 7-(4-(Difluoromethoxy)benzyloxy)-3H-[1,2,3]triazolo[4,5-b]pyridin-5-amine], 101 to 999 nM; for `Nc1cc(OCc2ccccc2OCc2ccccc2)c2nn[nH]c2n1` [Example 20, 7-(2-(Benzyloxy)benzyloxy)-3H-[1,2,3]triazolo[4,5-b]pyridin-5-amine], 1 to 100 nM.
Still for that read-out and setting: the value for `Nc1cc(OCc2ccccc2OC(F)(F)F)c2nn[nH]c2n1` [Example 21, 7-(2-(Trifluoromethoxy)benzyloxy)-3H-[1,2,3]triazolo[4,5-b]pyridin-5-amine] was 1 to 100 nM; that for `COC(=O)c1cccc(COc2cc(N)nc3[nH]nnc23)c1` [Example 22, Methyl 3-((5-amino-3H-[1,2,3]triazolo[4,5-b]pyridin-7-yloxy)methyl)benzoate] was 1 to 100 nM; that for `COC(=O)c1cccc(COc2cc(N)nc3[nH]nnc23)c1Cl` [Example 24, Methyl 3-((5-amino-3H-[1,2,3]triazolo[4,5-b]pyridin-7-yloxy)methyl)-2-chlorobenzoate] was 1 to 100 nM.
Still for that read-out and setting: the value for `Nc1cc(OCc2cccc(C(=O)N3CCOCC3)c2)c2nn[nH]c2n1` [Example 25, (3-((5-Amino-3H-[1,2,3]triazolo[4,5-b]pyridin-7-yloxy)methyl)phenyl)(morpholino)methanone] was 101 to 999 nM; that for `COc1c(COc2cc(N)nc3[nH]nnc23)cccc1C(F)(F)F` [Example 26] was 1 to 100 nM; that for `Nc1cc(OCc2cc(OC(F)(F)F)ccc2F)c2nn[nH]c2n1` [Example 27, 7-(2-Fluoro-5-(trifluoromethoxy)benzyloxy)-3H-[1,2,3]triazolo[4,5-b]pyridin-5-amine] was 1 to 100 nM.
As for `Nc1cc(OCc2cc(C(F)(F)F)ccc2Cl)c2nn[nH]c2n1` [Example 28, 7-(2-Chloro-5-(trifluoromethyl)benzyloxy)-3H-[1,2,3]triazolo[4,5-b]pyridin-5-amine], the IC50 is 1 to 100 nM.
For the compound `Nc1cc(OCc2cc(C(F)(F)F)cc(C(F)(F)F)c2)c2nn[nH]c2n1` [Example 29, 7-(3,5-Bis(trifluoromethyl)benzyloxy)-3H-[1,2,3]triazolo[4,5-b]pyridin-5-amine], the IC50 was 1 to 100 nM.
`COc1ccc(C(F)(F)F)cc1COc1cc(N)nc2[nH]nnc12` [Example 30, 7-(2-Methoxy-5-(trifluoromethyl)benzyloxy)-3H-[1,2,3]triazolo[4,5-b]pyridin-5-amine]: the IC50 fell in the range of 1 to 100 nM.
Still for that read-out and setting: for `Nc1cc(OCc2c(Cl)cccc2OC(F)(F)F)c2nn[nH]c2n1` [Example 31, 7-(2-Chloro-6-(trifluoromethoxy)benzyloxy)-3H-[1,2,3]triazolo[4,5-b]pyridin-5-amine] the value was 1 to 100 nM; for `Nc1cc(OCc2cc(OC(F)F)ccc2F)c2nn[nH]c2n1` [Example 32, 7-(5-(Difluoromethoxy)-2-fluorobenzyloxy)-3H-[1,2,3]triazolo[4,5-b]pyridin-5-amine], 1 to 100 nM; for `NC(=O)c1cccc(COc2cc(N)nc3[nH]nnc23)c1Cl` [Example 33, 3-((5-Amino-3H-[1,2,3]triazolo[4,5-b]pyridin-7-yloxy)methyl)-2-chlorobenzamide], 101 to 999 nM.
On the same count and under the same terms, for `COc1ccc(OC(F)(F)F)cc1COc1cc(N)nc2[nH]nnc12` [Example 35, 7-(2-Methoxy-5-(trifluoromethoxy)benzyloxy)-3H-[1,2,3]triazolo[4,5-b]pyridin-5-amine] the value was 1 to 100 nM; for `Nc1cc(OCc2ccccc2OCC(=O)NCC2CC2)c2nn[nH]c2n1` [Example 37, 2-(2-((5-Amino-3H-[1,2,3]triazolo[4,5-b]pyridin-7-yloxy)methyl)phenoxy)-N-(cyclopropylmethyl)acetamide], 101 to 999 nM; for `Nc1cc(OCc2ccccc2Oc2ccccc2)c2nn[nH]c2n1` [Example 38, 7-(2-Phenoxybenzyloxy)-3H-[1,2,3]triazolo[4,5-b]pyridin-5-amine], 1 to 100 nM.
On the same count and under the same terms, for `COC(=O)c1ccc(F)c(COc2cc(N)nc3[nH]nnc23)c1` [Example 41, Methyl 3-((5-amino-3H-[1,2,3]triazolo[4,5-b]pyridin-7-yloxy)methyl)-4-fluorobenzoate] the value was 1 to 100 nM.
Regarding `CS(=O)(=O)c1cc(Cl)cc(COc2cc(N)nc3[nH]nnc23)c1` [Example 44, 7-(3-Chloro-5-(methylsulfonyl)benzyloxy)-3H-[1,2,3]triazolo[4,5-b]pyridin-5-amine], the concentration for half-maximal inhibition (IC50) fell in the range of 101 to 999 nM.
In the case of `Nc1cc(OCc2cccc(-n3cnc(C(F)F)n3)c2)c2nn[nH]c2n1` [Example 45, 7-(3-(3-(Difluoromethyl)-1H-1,2,4-triazol-1-yl)benzyloxy)-3H-[1,2,3]triazolo[4,5-b]pyridin-5-amine], the IC50 was 1 to 100 nM.
